From patent US4973691A, “Etheric derivative of 4(3H)-quinazolinone and a process for preparation thereof” (Spojene Podniky Prozdravotnickou Vyrobu (SPOFA), priority 1988, dated 1990)
Where a name gives a salt, the structure may show the parent alone.

What was measured:
analgesic activity = type: in vivo; settings: for ED50: po; for ED50 (analgesic activity): p.o.
[1] = extensive investigations in recent years; cited from earlier work
in vivo = settings: po
gastrotoxicity = settings: in vivo
[2] = LD50 (acute (short-time) toxicity)

In the case of `Cc1c(N(C)C)c(=O)n(-c2ccccc2)n1C` [Aminophenazone, 1-phenyl-2,3-dimethyl-4-dimethylamino-5-pyrazolone], the ED50 (analgesic activity) is listed as 104 mg/kg, the cancerogenic properties [1] is listed as “potentially cancerogenic properties” and the LD50 (in vivo) is listed as 800 mg/kg.

With `O=c1c2ccccc2ncn1CCOc1ccc(-c2ccc(F)cc2F)cc1` the LD50 (in vivo; [2]) was 2000 mg/kg.

With `O=c1c2ccccc2ncn1CCOc1ccc(-c2ccc(F)cc2F)cc1` [Preferred etheric derivative (base), 3-[2-(2',4'-difluoro-4-biphenylyloxy)ethyl]-4(3H)-quinazolinone] the “ED50 (analgesic activity)” value (analgesic activity) was 71 mg/kg, the signs of cancerogenity (cancerogenity) was “free of any signs of gastrotoxicity and cancerogenity” and the LD50 (in vivo; [2]) was 1000 mg/kg. The signs of gastrotoxicity (gastrotoxicity) was “free of any signs of gastrotoxicity”.

Work on `CC(=O)Nc1ccc(O)cc1` [Paracetamol, 4-hydroxyacetanilide] yielded an ED50 (analgesic activity) of 285 mg/kg and an LD50 (in vivo; [2]) of 1090 mg/kg.

For `CC(C)Cc1ccc(C(C)C(=O)O)cc1` (centres unmarked) [Ibuprofen, 2-(4-isobutylphenyl)propionic acid], the ED50 (analgesic activity) was 179 mg/kg.

With `CC(=O)Oc1ccccc1C(=O)O` [Acetylosalicylic acid] the ED50 (analgesic activity) was 190 mg/kg and the LD50 (in vivo) was 1070 mg/kg.

In the case of `O=c1c2ccccc2ncn1CCOc1ccc(-c2ccc(F)cc2F)cc1` [Preferred etheric derivative (hydrochloride salt)], the “ED50 (analgesic activity)” value (analgesic activity) is reported as 26 mg/kg.
